The text below walks through data of US11028138B2, “Compositions and methods for using actin-based peptides to modulate cellular bioactivity and cellular susceptibility to intracellular pathogens” (priority 2016, dated 2021).

A word on the IC50: it is the concentration at which inhibition is half-maximal.

Assay [1] relates to Human T lymphoblast cell A3.01. The experiment in a line: N10-mediated cell killing, Propidium iodide and FITC-Annexin V staining, flow cytometry. The class given is cell-based. The note with it: 10 uM; A3.01 cells. The protocol: FIG. 8: Human T lymphoblast cell A3.01 was treated with N10 (10 uM). N10-mediated cell killing was monitored by staining of dead cells with Propidium iodide and FITC-labelled Annexin V. Cells were analyzed by flow cytometry.
N10-mediated cell killing was monitored by staining of dead cells with Propidium iodide and FITC-labelled Annexin V. Cells were analyzed by flow cytometry.
• 5) Culture human A3.01 cells at 5×10^5 cells/ml • 6) Add peptide N10 to the cell to a final concentration of 10 uM • 7) Continue to culture cell at 37° C., maintain cell density below 1×10^6 cells/ml 8) Take out 1-2×10^5 cells, put on ice, add P.I., and FITC—Annexin V as recommended by the reagent manufacturer for dead/apoptotic cell staining. • 9) Analyzed the staining by flow cytometer.
A general note: In flow cytometry, cells or beads pass a laser one at a time.

Assay [2] has as its system Influenza A virus (IAV). The note with it: vs solvent-treated control mice; cited from earlier work.
In assay [3] the test system is Influenza A virus (IAV). Particulars: A549 cells; read-out: IC50, reduction of viral replication; cited from earlier work.
Assay [4] deals with HIV-1. The note with it: Rev-CEM-GFP; 2 h infection; 2 days post infection; viable (low PI) cells; HIV alone 0.79% (N7 experiment), 1.95% (N9 experiment).
Procedure: (A) The HIV Rev-dependent indicator cell, Rev-CEM-GFP, was not infected (+Cell) or infected with HIV-1 (+HIV), or pre-treated with peptide N7, and then infected with HIV-1 (N7+HIV). Following infection for 2 hours, cells were washed to remove the virus and the peptide. Viral replication was measured at 2 days post infection by flow cytometry. […] PI, propidium iodide, was added before flow cytometry for cytotoxicity control. GFP+ cells were counted only when the cells are viable (low PI staining). (B) Effects of peptide N9 were similarly measured.
The HIV Rev-dependent indicator cell, Rev-CEM-GFP, was not infected (+Cell) or infected with HIV-1 (+HIV), or pre-treated with peptide N7, and then infected with HIV-1 (N7+HIV). Following infection for 2 hours, cells were washed to remove the virus and the peptide. Viral replication was measured at 2 days post infection by flow cytometry.
PI, propidium iodide, was added before flow cytometry for cytotoxicity control. GFP+ cells were counted only when the cells are viable (low PI staining).
Assay [5] relates to HIV. Nature of the assay: HIV DNA synthesis, 2-LTR circles and DNA integration in CEM-SS T cells and blood resting CD4 T cells. Particulars: for HIV DNA synthesis / HIV nuclear migration (2-LTR circles): peptide during 2 h infection; for HIV DNA integration: resting CD4 T cells, no T cell activation. The class given is cell-based. On the procedure: FIG. 6: Peptide N7 and N9 enhance HIV DNA synthesis, nuclear migration, and integration. (A) CEM-SS T cells were treated with N7 during HV infection for 2 hours, washed, and then analyzed for viral DNA synthesis and 2-LTR circles, a marker for HIV nuclear migration. (B) Blood resting CD4 T cells were similar infected, washed, and cultured without T cell activation. Viral DNA synthesis and DNA integration were analyzed.
CEM-SS T cells were treated with N7 during HV infection for 2 hours, washed, and then analyzed for viral DNA synthesis and 2-LTR circles, a marker for HIV nuclear migration. Blood resting CD4 T cells were similar infected, washed, and cultured without T cell activation. Viral DNA synthesis and DNA integration were analyzed.

The subject of a further assay is actin. The experiment in a line: Actin polymerization and depolymerization by FITC-phalloidin staining in resting CD4 T cells. The class given is cell-based. The protocol:
(§1) FIG. 5: Peptide N7 and N9 modulate cell signal transduction and chemotactic cofilin and actin activity. (A) Resting memory CD4 T cells were treated with N7 for a time course, cofilin phosphorylation was measured by Western Blot. Total cofilin and GAPDH was also measured for loading control. (B) Resting CD4 T cells were treated with N9, and actin polmerization and depolymerization were measured by FITC-phalloidin staining.
(§2) Resting memory CD4 T cells were treated with N7 for a time course, and cofilin phosphorylation was measured by Western Blot. Total cofilin and GAPDH was also measured for loading control (FIG. 5A). Resting CD4 T cells were treated with N9, and actin polmerization and depolymerization were measured by FITC-phalloidin staining (FIG. 5B).

The subject of assay [6] is HIV. Nature of the assay: HIV infection of resting CD4 T cells, viral p24 release. The class given is cell-based. The protocol: FIG. 7: Peptide N9 promotes HIV infection of resting CD4 T cells. Resting CD4 T cells were treated with N9, and then infected with HIV for 2 hours. Following infection, cells were washed, and culture in the absence of T cell activation and N9. Viral p24 release was measured. As controls, cells were culture with the addition of IL-7 (daily addition), or with a scrambled peptide, or only in the culture medium.
The ability of N9 to stimulate HIV infection of blood resting CD4 T cells was also tested. Resting CD4 T cells are relatively resistant to HIV infection. The lack of activity in the cortical actin limits viral early steps in the infection of resting T cells (Yoder et aI., 2008).

In assay [7] the test system is HIV-1. The note with it: dosages that did not affect CD4 T cell activation or induce cytotoxicity; cited from earlier work.
Assay [8] concerns HIV-1. Particulars: pretreatment; cited from earlier work.
A further assay relates to cofilin. The experiment in a line: Cofilin phosphorylation by Western Blot in resting memory CD4 T cells. The class given is cell-based. Particulars: time course. On the procedure: as §1, §2
Background: Immunoblotting shows a protein as a band on a membrane.

Another assay deals with surface CXCR4 receptors. The experiment in a line: Surface receptor staining and flow cytometry after peptide stimulation (CXCR4). The class given is cell-based, human. The note with it: T cells exposed to peptide, 10 uM, 5 to 120 min. On the procedure: (§3) FIG. 4: Up-regulation of cell surface receptors by N7. CEM-SS T cells or blood resting CD4 T cells were stimulated with peptide N7 for a time course. Effects on surface CD4, CXCR4 density were measured by anti-CD4 or anti-CXCR4, followed by flow cytometry.
(§4) • 1) Culture human CEM-SS T cells at 5×10^5 cells/ml • 2) Add peptide N7 to the cell to a final concentration of 10 uM at various times from 5 min to 120 min (e. g. 5, 10, 15, 30, 45, 60, 120 min). • 3) Take out 1-2×10^5 cells, put on ice, perform routine surface staining using FITC-, PE- or PE-cy5-labelled specific antibodies against cell receptors as recommended by the reagent manufacturer for cell surface staining. • 4) Analyzed the staining by flow cytometer.

In another assay the test system is surface CD4 receptor. Nature of the assay: Surface receptor staining and flow cytometry after peptide stimulation (CD4). The class given is cell-based, human. Particulars: T cells exposed to peptide, 10 uM, 5 to 120 min. The protocol: as §3, §4

For “RRRRRRRR(G/A)0-20AGRDLTDYLMKILTERGYSF [Peptide N10]”, the Cell killing entry in [1] is “killing of T cells”.
As to `CCN(CC)CCCC(C)Nc1nc(C)cc(Nc2ccc3nc(C)cc(N)c3c2)n1` (stereo not shown) [NSC23766], in the assay with Influenza A virus (IAV) [2], the Body weights result is given as “increased”, the Survivability entry is “higher” and the “Titer of IAV in lung tissue” value is given as “reduce titer”. The IC50 in the assay on Influenza A virus (IAV) [3] was 22 µM.
With “RRRRRRRR(G/A)0-20HTVRIYEGYALRHAILRLDL [Peptide N9]”, the “HIV infection, percentage of GFP+ cells” value with HIV-1 [4] is reported as 14.07%. Moreover, in the assay with HIV [5], the “HIV DNA synthesis” value is recorded as “enhance”, the “HIV nuclear migration (2-LTR circles)” value is “enhance” and the “HIV DNA integration” value was “enhance”. In addition, the Actin polymerization/depolymerization entry in the assay on actin is reported as “modulate”. For the same molecule, in the assay with HIV [6] (early time), the “Stimulation of viral infection compared with IL-7 (administered daily)” value is “more potent”. Besides, in the assay with HIV [6] (single-dosage treatment prior to infection, no T cell activation or cytokine stimulation), the “HIV infection of resting T cells (p24 release)” value is on record as “drastically stimulated”.
For `O=C1CSC(c2cccc(Br)c2)N1c1cc(Cl)ccc1O` (stereo not shown) [CK-548], in the assay on HIV-1 [7], the HIV-1 replication entry is “dramatically reduced”.
Regarding `C=C1[C@@H](C)[C@H]2[C@H](Cc3ccccc3)NC(=O)[C@]23[C@H](OC(C)=O)/C=C/[C@@](C)(O)C(=O)[C@@H](C)C/C=C/[C@H]3[C@@H]1O` [CCD, cytochalasin D], the “Reduction of nuclear accumulation of late RT products” value in the assay on HIV-1 [8] is listed as 25 fold.
For “RRRRRRRR(G/A)0-20QIMFETENTPAMYVAIQAVL [Peptide N7]”, in the assay with HIV-1 [4], the “HIV infection, percentage of GFP+ cells” value is 15.5%. Besides, in the assay with HIV [5], the “HIV DNA synthesis” value is reported as “enhance”, the “HIV nuclear migration (2-LTR circles)” value is “enhance” and the “HIV DNA integration” value is given as “enhance”. Further, the Actin polymerization/depolymerization result in the assay with actin is on record as “actin depolymerization”. Also, in the assay on cofilin, the Cofilin activation result was “briefly triggers cofilin activation”. The “Surface CXCR4 receptor density” value in the assay on surface CXCR4 receptors is reported as “drastically up-regulate”. Moreover, in the assay with surface CD4 receptor, the “Surface CD4 receptor density” value is listed as “moderate up-regulation”.
